# In US8912188B2, “Substituted quinoxaline carboxylic acids for the inhibition of PASK” (BioEnergenix, LLC, priority 2011, dated 2014):
# Molecular target: T1, PASK (Invitrogen) (Homo sapiens, UniProt Q96RG2)
# T1 construct: IC50 Kinase Domain; purchased Invitrogen
# Test: PAS Kinase FRET Assay
# Type: biochemical
# Conditions: PAS kinase TR-FRET assay (665 nm/615 nm), 2 hours at 25° C.; read-out: IC50 Kinase Domain
# Description: Biochemical Assay for hPASK Activity
# The aim of the FRET assay is to determine the inhibition potential of test compounds on targeted kinase. This assay platform provides a homogenous screening method for measuring kinase activity by quantitating the amount of phospho-substrate in solution following a kinase reaction.
# In the presence of kinase and ATP, the Ulight-peptide is phosphorylated and captured by an anti-phospho-substrate antibody, which brings the Eu chelate donor and Ulight acceptor dyes into close proximity.
# Titration of kinase at 1 mM ATP was achieved via the following protocol. […] The contents of the plate were incubated at RT for 1 h. The reaction was stopped by adding 5 μl of stop solution to each test well followed by mixing and incubation at RT for 10 minutes. 5 μl of detection mix (detection antibody diluted in detection buffer) was added; the contents of the plate were mixed and then incubated in the dark for 1 hour at RT. […] The results were graphed to calculate the EC50.
# Titration of ATP at the EC50 concentration of kinase to determine ATP Km,app. was performed using the following method. […] The contents of the plate were and incubated at RT for 1 h. The reaction was stopped by adding 5 μl of stop solution to each test well followed by mixing and incubation at RT for 10 minutes. […] (detection antibody diluted in detection buffer) was added; the contents of the plate were mixed and then incubated in the dark for 1 hour at RT. […] The results were graphed to calculate the EC50 as the ATP Km,app.
# Compound screening was done via the following method. 10 mM stock solution of test compound in DMSO was prepared by dissolving test compound in DMSO at RT for 1 hour, and then sonicating at 100% output for 8 minutes. If compound is not soluble under this condition, it was diluted to 3 mM. Kinase reaction buffer was prepared containing 10 mM MgCl2, 50 mM HEPES, 1 mM EGTA, 0.01% TWEEN-20, 2 mM DTT. […] As a positive control, 2.5 μl of positive compound was added to assay wells, and 2.5 μl of DMSO to assay wells as vehicle control. Kinase solution was prepared in reaction buffer at 2× final assay concentration. Kinase solution (5 μl) was added to each well of the assay plate. The substrate and ATP solution was prepared in kinase reaction buffer at 4× final assay concentration. The kinase reaction was started by adding 2.5 μl of substrate+ATP mix solution to each well of the assay plate. The plate is mixed on a plate shaker; then covered and allowed to react for 2 hours in the dark at 25° C. without shaking. The reaction was stopped by adding 5 μl of stop solution to each test well followed by mixing and incubation at RT for 10 minutes in the dark. 5 μl of detection mix (detection antibody diluted in detection buffer) was added; the contents of the plate were mixed and then incubated in the dark for 1 hour at RT.
# T1 sequence (Q96RG2 999-1251 limits assumed): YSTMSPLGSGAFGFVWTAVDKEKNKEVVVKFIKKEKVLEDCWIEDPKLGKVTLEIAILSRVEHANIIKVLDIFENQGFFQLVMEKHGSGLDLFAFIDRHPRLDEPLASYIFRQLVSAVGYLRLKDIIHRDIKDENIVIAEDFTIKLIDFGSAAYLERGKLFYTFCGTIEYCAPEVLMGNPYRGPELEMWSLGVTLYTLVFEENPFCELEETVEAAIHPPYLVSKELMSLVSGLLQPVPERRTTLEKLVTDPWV
row,Structure (SMILES),IC50 [µM]
1,"CN(c1nc2cc(C(=O)O)ccc2nc1-c1ccc(F)cc1)C1CCNCC1 [Example 103, 2-(4-Fluorophenyl)-3-(methyl(piperidin-4-yl)amino)quinoxaline-6-carboxylic acid]",< 10
2,"COc1cc2nc(-c3ccc(F)cc3)c(N(C)C(C)C)nc2cc1C(=O)O [Example 122, 2-(4-Fluorophenyl)-7-methoxy-3-[methyl(propan-2-yl)amino]quinoxaline-6-carboxylic acid]",> 10
3,"O=C(O)c1ccc2nc(-c3ccc(F)cc3)c(N3CCC(c4ccccn4)CC3)nc2c1 [Example 131, 2-(4-Fluorophenyl)-3-[4-(pyridin-2-yl)piperidin-1-yl]quinoxaline-6-carboxylic acid]",< 10
4,"CN[C@H]1CC[C@H](N(C)c2nc3cc(C(=O)O)ccc3nc2-c2ccc(F)cc2)CC1 [Example 126, 2-(4-Fluorophenyl)-3-(methyl((1r,4r)-4-(methylamino)cyclohexyl)amino)quinoxaline-6-carboxylic acid]",< 10
5,"C[C@H]1CCCN1c1nc2cc(C(=O)O)ccc2nc1-c1ccc2[nH]nnc2c1 [Example 96, (S)-2-(1H-Benzo[d][1,2,3]triazol-5-yl)-3-(2-methylpyrrolidin-1-yl)quinoxaline-6-carboxylic acid]",< 10
6,"Cc1cc(F)ccc1-c1nc2ccc(C(=O)O)cc2nc1N1CCC[C@@H]1C [Example 117, (S)-2-(4-Fluoro-2-methylphenyl)-3-(2-methylpyrrolidin-1-yl)quinoxaline-6-carboxylic acid]",< 10
7,"CC(=O)N[C@H]1CC[C@H](N(C)c2nc3cc(C(=O)O)ccc3nc2-c2ccc(F)cc2)CC1 [Example 127, 3-(((1r,4r)-4-Acetamidocyclohexyl)(methyl)amino)-2-(4-fluorophenyl)quinoxaline-6-carboxylic acid]",< 10
8,"C[C@@H](c1ccccc1)N(C)c1nc2cc(C(=O)O)ccc2nc1-c1ccc2[nH]ncc2c1 [Example 98, (S)-2-(1H-Indazol-5-yl)-3-(methyl(1-phenylethyl)amino)quinoxaline-6-carboxylic acid]",< 10
9,"CC(C)N(C)c1nc2cc(C(=O)O)ccc2nc1-c1ccc2ncccc2c1 [Example 46, 3-(Isopropyl(methyl)amino)-2-(quinolin-6-yl)quinoxaline-6-carboxylic acid]",< 10
10,"CCN1CCC(N(C)c2nc3cc(C(=O)O)ccc3nc2-c2ccc(F)cc2)CC1 [Example 137, 3-[(1-Ethylpiperidin-4-yl)(methyl)amino]-2-(4-fluorophenyl)quinoxaline-6-carboxylic acid]",< 10
11,"O=C(O)c1ccc2nc(-c3ccc(F)cc3)c(N3CCN(C(=O)c4ccccc4)CC3)nc2c1 [Example 129, 3-(4-Benzoylpiperazin-1-yl)-2-(4-fluorophenyl)quinoxaline-6-carboxylic acid]",< 10
12,"CC(C)N(C)c1nc2cc(C(=O)O)ccc2nc1-c1nc2ccccc2s1 [Example 58, 2-(1,3-Benzothiazol-2-yl)-3-[methyl(propan-2-yl)amino]quinoxaline-6-carboxylic acid]",< 10
13,"CC(C)Nc1nc2cc(C(=O)O)ccc2nc1-c1cc2ccccc2o1 [Example 70, 2-(1-Benzofuran-2-yl)-3-[(propan-2-yl)amino]quinoxaline-6-carboxylic acid]",< 10
14,"CCn1ncc2cc(-c3nc4ccc(C(=O)O)cc4nc3N(C)C(C)C)ccc21 [Example 26, 2-(1-Ethyl-1H-indazol-5-yl)-3-(isopropyl(methyl)amino)quinoxaline-6-carboxylic acid]",< 10

# More lines, now with the values ahead:
row,IC50 [µM],Structure (SMILES)
1,< 10,"CN(CC(F)(F)F)c1nc2cc(C(=O)O)ccc2nc1-c1ccc(F)cc1 [Example 124, 2-(4-Fluorophenyl)-3-[methyl(2,2,2-trifluoroethyl)amino]quinoxaline-6-carboxylic acid]"
2,< 10,"CC(C)N(C)c1nc2cc(C(=O)O)ccc2nc1-c1ccc2occc2c1 [Example 30, 2-(1-Benzofuran-5-yl)-3-[methyl(propan-2-yl)amino]quinoxaline-6-carboxylic acid]"
3,< 10,"CC(C)N(C)c1nc2cc(C(=O)O)ccc2nc1-c1occc1-c1ccccc1 [Example 83, 3-[Methyl(propan-2-yl)amino]-2-(3-phenylfuran-2-yl)quinoxaline-6-carboxylic acid]"
4,< 10,"CN(c1nc2cc(C(=O)O)ccc2nc1-c1ccc2[nH]ncc2c1)C1CC1 [Example 29, 3-(Cyclopropyl(methyl)amino)-2-(1H-indazol-5-yl)quinoxaline-6-carboxylic acid]"
5,< 10,"O=C(O)c1ccc2nc(-c3ccc4[nH]ccc4c3)c(N3CCCCC3)nc2c1 [Example 65, 2-(1H-Indol-5-yl)-3-(piperidin-1-yl)quinoxaline-6-carboxylic acid]"
6,< 10,"C[C@H]1CCCN1c1nc2cc(C(=O)O)ccc2nc1-c1cc2ccc(F)cc2o1 [Example 32, (S)-2-(6-Fluorobenzofuran-2-yl)-3-(2-methylpyrrolidin-1-yl)quinoxaline-6-carboxylic acid]"
7,< 10,"CC(C)N(C)c1nc2cc(C(=O)O)ccc2nc1-c1cc2cc(F)c(F)cc2o1 [Example 33, 2-(5,6-Difluorobenzofuran-2-yl)-3-(isopropyl(methyl)amino)quinoxaline-6-carboxylic acid]"
8,< 10,"CN(c1nc2cc(C(=O)O)ccc2nc1-c1ccc(F)cc1)C1CCOCC1 [Example 102, 2-(4-Fluorophenyl)-3-(methyl(tetrahydro-2H-pyran-4-yl)amino)quinoxaline-6-carboxylic acid]"
9,< 10,"COc1ccc2[nH]c(-c3nc4ccc(C(=O)O)cc4nc3N(C)C(C)C)cc2c1 [Example 6, 3-(Isopropyl(methyl)amino)-2-(5-methoxy-1H-indol-2-yl)quinoxaline-6-carboxylic acid]"
10,< 10,"CC(C)N(C)c1nc2cc(C(=O)O)ccc2nc1-c1ccc2cn[nH]c2c1 [Example 4, 2-(1H-Indazol-6-yl)-3-(isopropyl(methyl)amino)quinoxaline-6-carboxylic acid]"
11,< 10,"CN(Cc1ccccc1)c1nc2cc(C(=O)O)ccc2nc1-c1ccc2[nH]ncc2c1 [Example 97, 3-(Benzyl(methyl)amino)-2-(1H-indazol-5-yl)quinoxaline-6-carboxylic acid]"
12,< 10,"CCN(CC)c1nc2cc(C(=O)O)ccc2nc1-c1ccc2[nH]ccc2c1 [Example 38, 3-(Diethylamino)-2-(1H-indol-5-yl)quinoxaline-6-carboxylic acid]"
13,< 10,"CC(C)N(C)c1nc2cc(C(=O)O)ccc2nc1-c1cnn(-c2ccccc2)c1 [Example 91, 3-[Methyl(propan-2-yl)amino]-2-(1-phenyl-1H-pyrazol-4-yl)quinoxaline-6-carboxylic acid]"
14,< 10,"CCN(CC)c1nc2cc(C(=O)O)ccc2nc1-c1cc2ccccc2o1 [Example 27, 2-(1-Benzofuran-2-yl)-3-(diethylamino)quinoxaline-6-carboxylic acid]"
